Several values for one entry are separate records, joined by “and”; a condition that tells them apart may be missing. Equal values may be shown once.
Columns and labels:
VcMshEN wild type = type: binding, Vibrio cholerae
VcMshEN1-145 (wild type) = VcMshEN1-145 (wild type) (Vibrio cholerae, UniProt Q9KUV7); test: biochemical; type: binding
VcMshEN G40I = VcMshEN G40I (Vibrio cholerae, UniProt Q9KUV7, G40I); type: binding
GST = GST (Schistosoma japonicum, UniProt P08515); test: ITC control, GST alone with c-di-GMP; type: binding
[1] = target: T1, D. geothermalis PilB_2 (ABF44566 151-300) (Deinococcus geothermalis, UniProt Q1J1R8); test: ITC titration of D. geothermalis PilB_2 with c-di-GMP; type: binding
T1 sequence (Q1J1R8 151-300): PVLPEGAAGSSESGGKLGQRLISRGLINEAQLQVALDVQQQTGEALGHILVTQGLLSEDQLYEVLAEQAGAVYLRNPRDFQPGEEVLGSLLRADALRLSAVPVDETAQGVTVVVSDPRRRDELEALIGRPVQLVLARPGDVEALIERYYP

[2] = target: D. geothermalis PilB_3 (ABF44566 301-475); test: ITC titration of D. geothermalis PilB_3 with c-di-GMP; type: binding, Deinococcus geothermalis; conditions: ABF44566_III, ND = not detectable
[3] = target: T2, Moorella thermoacetica GspE (ABC19863 1-141) (Neomoorella thermoacetica, UniProt A0AAC9HIF0); test: ITC titration of Moorella thermoacetica GspE MshEN with c-di-GMP; type: binding
T2 sequence (A0AAC9HIF0 1-141): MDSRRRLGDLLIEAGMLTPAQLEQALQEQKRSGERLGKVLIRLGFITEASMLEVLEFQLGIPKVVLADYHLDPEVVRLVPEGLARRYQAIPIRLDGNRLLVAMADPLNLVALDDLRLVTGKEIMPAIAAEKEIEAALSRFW

V. cholerae MshEN_N1-65 = V. cholerae MshEN_N1-65 (Vibrio cholerae, UniProt Q9KUV7); test: biochemical; type: binding
[4] = target: Aeromonas veronii CheA (EKB11881 261-390); type: binding; conditions: read-out: Dissociation constant (KD)
[5] = target: MshEN analogues, diverse bacterial proteins with the c-di-GMP-binding motif; conditions: read-out: binding constants
[6] = target: P. aeruginosa PA3740 (AAG07127); conditions: cited from earlier work
[7] = system: full-length MshE protein (ATPase); conditions: cited from earlier work

**Q.** For cGMP, which “Binding to the MshEN domain” value (VcMshEN wild type) is on record?
**A.** cannot bind

**Q.** Which results are given for `Nc1nc2c(ncn2[C@@H]2O[C@@H]3CO[P@](=O)(O)O[C@H]4[C@@H](O)[C@H](n5cnc6c(=O)[nH]c(N)nc65)O[C@@H]4CO[P@](=O)(O)O[C@H]3[C@H]2O)c(=O)[nH]1` [c-di-GMP, Cyclic dimeric GMP]?
**A.** Kd (VcMshEN1-145 (wild type)): 0.5 µM; Fold change of KD (VcMshEN G40I): 72.0; c-di-GMP binding (GST): no c-di-GMP binding; Ligand/protein ratio [1]: 1.01; Kd ([1]; KD, middle domain of PilB (ABF44566)): 0.014 µM and 0.0135 µM; Dissociation constant (KD) [2]: completely lost it binding affinity; Ligand/protein ratio [3]: 1.01; Kd ([3]; read-out: Dissociation constant (KD)): 0.46 µM; Kd (V. cholerae MshEN_N1-65): 0.35 µM; Ligand/protein ratio (V. cholerae MshEN_N1-65): 0.99; Kd [4]: 2.6 µM; Kd [5]: ~0.5 µM; Melting temperature Tm, + c-di-GMP (VcMshEN wild type): 71 ºC; Melting temperature increase (VcMshEN wild type): 9 º; Tm Difference (+ c-di-GMP minus absence) (VcMshEN wild type): 10 ºC; Kd [6]: ~0.03 µM; Stimulation of ATPase activity by external c-di-GMP [7]: < 10%

**Q.** Which “Dissociation constant (KD)” value (VcMshEN1-145 (wild type)) does the source give for c-di-AMP here?
**A.** non-detectable

**Q.** What about the KD (VcMshEN1-145 (wild type)) of the same molecule?
**A.** non-detectable

— article PMC5013675, “Nucleotide binding by the widespread high-affinity cyclic di-GMP receptor MshEN domain” (Nature Communications, 2016)
